Measured values as given in PubChem BioAssay (NCI).
“And” between values parts separate entries of the source, which are not always exact repeats. Identical values can stand only once.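 Interpolation was linear, between the two tested concentrations surrounding the appropriate level; five concentrations were tested over 48 hours in 96-well plates. Abbreviation: GI50, concentration required for 50% inhibition of growth. At the TGI there is no net growth.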

Columns and labels:
Assay in all cases: growth of human tumour cells (NCI), 48 h
SNB-75 CNS = system: SNB-75 CNS
KM12 colon = system: KM12 colon
OVCAR-5 ovarian = system: OVCAR-5 ovarian
MCF7 breast = system: MCF7 breast
A498 renal = system: A498 renal
CAKI-1 renal = system: CAKI-1 renal
NCI-H460 lung = system: NCI-H460 lung
K-562 leukemia = system: K-562 leukemia
M19-MEL melanoma = system: M19-MEL melanoma
RPMI-8226 leukemia = system: RPMI-8226 leukemia

## Cn1cc(-c2nc(-c3c[nH]c4ccncc34)cs2)c2cc(F)ccc21
SNB-75 CNS
  GI50: 1.26 µM
  TGI: 2.6 µM
KM12 colon
  GI50: 1.63 µM
  TGI: 3.11 µM
OVCAR-5 ovarian
  GI50: 1.68 µM
  TGI: 3.11 µM
MCF7 breast
  GI50: 1.23 µM
  TGI: 2.88 µM
A498 renal
  GI50: 1.8 µM
  TGI: 3.43 µM
CAKI-1 renal
  GI50: 1.65 µM
  TGI: 3.04 µM
NCI-H460 lung
  GI50: 1.77 µM
  TGI: 3.42 µM

## C=CC[N+](CCO)(CCO)CCCCCCCCCCCCCCCCCC
SNB-75 CNS
  TGI: 7.55 µM
KM12 colon
  TGI: 3.58 µM
K-562 leukemia
  TGI: 18.2 µM
OVCAR-5 ovarian
  TGI: 31.5 µM
MCF7 breast
  TGI: > 44.8 µM
M19-MEL melanoma
  TGI: 11.9 µM
A498 renal
  TGI: 42.5 µM
CAKI-1 renal
  TGI: 17.9 µM
NCI-H460 lung
  TGI: 19.2 µM
RPMI-8226 leukemia
  TGI: 5.45 µM

## COc1ccc(/C(Cl)=C(\C=O)c2ccccc2)cc1OC
SNB-75 CNS
  TGI: 52.2 µM
K-562 leukemia
  TGI: > 100 µM
OVCAR-5 ovarian
  TGI: > 100 µM
M19-MEL melanoma
  TGI: > 100 µM
CAKI-1 renal
  TGI: > 100 µM
NCI-H460 lung
  TGI: > 100 µM

## C=C1C(=O)O[C@@H]2OC3(C)CCC4C(C)CCC1C42OO3 (stereo partly drawn)
SNB-75 CNS
  GI50: 13.1 µM
  TGI: 25.9 µM and 7.74 µM
KM12 colon
  GI50: 2.66 µM
  TGI: 9.02 µM and 16.4 µM
K-562 leukemia
  GI50: 2.32 µM
  TGI: 6.76 µM and 18.1 µM
OVCAR-5 ovarian
  GI50: 24.5 µM
  TGI: 39.7 µM and 29.3 µM
MCF7 breast
  GI50: 2.2 µM
  TGI: 11.5 µM and 15 µM
M19-MEL melanoma
  GI50: 2.44 µM
  TGI: 14.7 µM and 13.9 µM
A498 renal
  GI50: 2.57 µM
  TGI: 6.56 µM and 10.6 µM
CAKI-1 renal
  TGI: 5.95 µM
NCI-H460 lung
  TGI: 8.04 µM and 5.58 µM
RPMI-8226 leukemia
  GI50: 0.573 µM

## N/C(=N\N=C\c1cc2c(cc1Cl)OCO2)NO
SNB-75 CNS
  TGI: > 100 µM
KM12 colon
  TGI: > 100 µM
K-562 leukemia
  TGI: > 100 µM
OVCAR-5 ovarian
  TGI: > 61.5 µM
MCF7 breast
  TGI: > 100 µM
M19-MEL melanoma
  TGI: > 100 µM
A498 renal
  TGI: > 100 µM
CAKI-1 renal
  TGI: > 100 µM
NCI-H460 lung
  TGI: > 100 µM
RPMI-8226 leukemia
  TGI: > 72.8 µM

## O=C1OC(c2ccc(Cl)cc2)(c2ccc(Cl)cc2)c2c1ccc1ccccc21
SNB-75 CNS
  TGI: > 100 µM
KM12 colon
  TGI: > 100 µM
K-562 leukemia
  TGI: > 100 µM
OVCAR-5 ovarian
  TGI: > 100 µM
M19-MEL melanoma
  TGI: > 100 µM
A498 renal
  TGI: > 100 µM
CAKI-1 renal
  TGI: > 100 µM
NCI-H460 lung
  TGI: > 100 µM
RPMI-8226 leukemia
  TGI: > 100 µM

## C[C@H](CN1CC(=O)NC(=O)C1)N1CC(=O)NC(=O)C1
SNB-75 CNS
  TGI: > 100 µM
KM12 colon
  TGI: > 100 µM
K-562 leukemia
  TGI: > 100 µM
OVCAR-5 ovarian
  TGI: > 100 µM
MCF7 breast
  TGI: > 100 µM
M19-MEL melanoma
  TGI: > 100 µM
A498 renal
  TGI: > 100 µM
CAKI-1 renal
  TGI: > 100 µM
NCI-H460 lung
  TGI: > 100 µM
RPMI-8226 leukemia
  TGI: > 100 µM

## Nc1nn(CC(O)CO)c(=O)s1 (stereo not drawn)
SNB-75 CNS
  TGI: > 100 µM
K-562 leukemia
  TGI: > 100 µM
OVCAR-5 ovarian
  TGI: > 100 µM
M19-MEL melanoma
  TGI: > 100 µM
A498 renal
  TGI: > 100 µM
NCI-H460 lung
  TGI: > 100 µM
RPMI-8226 leukemia
  TGI: > 100 µM

## CCOC(=O)C1=NN(c2ccc(Cl)cc2)C2=CC(C)=NN(C)C(=S)N21
SNB-75 CNS
  TGI: 94.7 µM
KM12 colon
  TGI: > 100 µM
K-562 leukemia
  TGI: > 100 µM
OVCAR-5 ovarian
  TGI: > 100 µM
CAKI-1 renal
  TGI: 50.4 µM
NCI-H460 lung
  TGI: > 100 µM
RPMI-8226 leukemia
  TGI: > 100 µM

## COc1ccc(/C=N/n2cnc3c(c2=O)S/C(=C2/SC(=S)N(c4ccc(C)cc4)C2=O)N3c2ccccc2)cc1
SNB-75 CNS
  TGI: > 100 µM
KM12 colon
  TGI: > 100 µM
K-562 leukemia
  TGI: > 10 µM
OVCAR-5 ovarian
  TGI: > 100 µM
M19-MEL melanoma
  TGI: > 100 µM
CAKI-1 renal
  TGI: > 10 µM
NCI-H460 lung
  TGI: > 100 µM
RPMI-8226 leukemia
  TGI: > 100 µM

## C[C@H](N)C(=O)N[C@@H]1[C@H]2C(=C(O)C[C@@H](O)[C@@H]2O)C(=O)O[C@@H]1C
SNB-75 CNS
  TGI: > 100 µM
KM12 colon
  TGI: > 100 µM
K-562 leukemia
  TGI: > 100 µM
OVCAR-5 ovarian
  TGI: > 100 µM
MCF7 breast
  TGI: > 100 µM
M19-MEL melanoma
  TGI: > 100 µM
A498 renal
  TGI: > 100 µM
CAKI-1 renal
  TGI: > 100 µM
NCI-H460 lung
  TGI: > 100 µM
RPMI-8226 leukemia
  TGI: > 100 µM
